From US20100196325A1 (priority 2007, published 2010)
Entries after “also recorded” stand apart in the source; their conditions may differ. Where two headings read alike, the source gives them in different places.

Columns and labels:
[1] = human, in vivo; for Side effects from the virus: iv
tumor = system: tumor; design: species or system patient; conditions: human, in vivo
[2] = system: modified vaccinia virus, such as GLV-1h68; design: species or system patient; conditions: human, in vivo
[3] = system: recombinant vaccinia virus GLV-1h68; format: cell-based
[4] = system: recombinant vaccinia virus GLV-1h68; format: cell-based; remark: listed apart in the source
[5] = Pock formation (systemic toxicity) after i.v. GLV-1h68 in GI-101A tumor-bearing mice; conditions: 80 days after virus injection; GLV-1h68 virus-treated animals given four doses of irinotecan 80 mg/kg i.p.; n=8
[6] = system: GI-101A human breast carcinoma cells; design: species or system nude mice; conditions: mouse, in vivo
[7] = system: recombinant vaccinia virus GLV-1h68; format: cell-based; remark: listed apart in the source
[8] = system: A549 lung carcinoma cells; design: species or system nude mice; conditions: mouse, in vivo
[9] = system: PANC-1 human pancreatic carcinoma cells; design: species or system nude mice; conditions: mouse, in vivo

SMILES | Body weight and pock formation [1] | Patient's symptoms [1] | Virus-associated side effects [1] | Side effects from the virus [1] | Tumor growth (tumor) | Viral load in the bloodstream [2] | Viral load in the bloodstream: decrease [2] | Viral load in the bloodstream: increase [2] | Viral load in the bloodstream ([2]; iv) | Concentration at which growth of GLV-1h68 was completely inhibited [3] | Effect on GLV-1h68 growth in GI-101A cells (in words) [3] | Concentration at which growth of GLV-1h68 was completely inhibited [4] | Effect on GLV-1h68 growth in GI-101A cells (in words) [4] | Tumor growth (tumor; iv) | Animals in which no pocks were observed on any part of the body [5] | Effect on tumor growth (in words) [6] | Concentration at which growth of GLV-1h68 was completely inhibited [7] | Effect on tumor growth (in words) [8] | Effect on tumor growth (in words) [9]
COc1cccc2c1C(=O)c1c(O)c3c(c(O)c1C2=O)C[C@@](O)(C(=O)CO)C[C@@H]3O[C@H]1C[C@H](N)[C@H](O)[C@H](C)O1 [Doxorubicin] | body weight of the patient is improved and any pock formation dissipates | symptoms subside | Fewer virus-associated side effects | suffers fewer side effects from the virus | tumor growth is arrested or decreases | is maintained or increases before subsequently decreasing | decreases more quickly; also recorded: decreases more rapidly | increased to a lesser extent | decreases over the period of time | ≥ 1 µM | started to inhibit | – | – | – | – | – | – | – | –
N.N.[Cl][Pt][Cl] [Cisplatin] | body weight of the patient is improved and any pock formation dissipates | symptoms subside | Fewer virus-associated side effects | suffers fewer side effects from the virus | tumor growth is arrested or decreases | is maintained or increases before subsequently decreasing | decreases more quickly; also recorded: decreases more rapidly | increased to a lesser extent | decreases over the period of time | – | – | ≥ 100 µM | started to inhibit; also recorded: significantly inhibited the virus growth | – | – | – | – | – | –
CCc1c2c(nc3ccc(OC(=O)N4CCC(N5CCCCC5)CC4)cc13)-c1cc3c(c(=O)n1C2)COC(=O)[C@]3(O)CC [Irinotecan] | body weight of the patient is improved and any pock formation dissipates | symptoms subside | Fewer virus-associated side effects | suffers fewer side effects from the virus | tumor growth is arrested or decreases | is maintained or increases before subsequently decreasing | decreases more quickly; also recorded: decreases more rapidly | increased to a lesser extent | decreases over the period of time | – | – | – | – | tumor growth is arrested or decreases | 7 out of 8 | increased tumor growth | – | – | –
Nc1ccn(C2OC(CO)C(O)C2(F)F)c(=O)n1 (centres unmarked) [Gemcitabine, 4-amino-1-[3,3-difluoro-4-hydroxy-5-(hydroxymethyl)tetrahydrofuran-2-yl]-1H-pyrimidine-2-one] | body weight of the patient is improved and any pock formation dissipates | symptoms subside | Fewer virus-associated side effects | suffers fewer side effects from the virus | tumor growth is arrested or decreases | is maintained or increases before subsequently decreasing | decreases more quickly; also recorded: decreases more rapidly | increases to a lesser extent | decreases over the period of time | – | – | – | – | tumor growth is arrested or decreases | – | – | ≥ 1.0 µM | did not cause any inhibition of tumor growth | decrease tumor growth in the mice at both 50 mg/kg and 100 mg/kg doses to some extent
